According to patent publication US8252740B2, “Thermally-targeted delivery of medicaments including doxorubicin” (The University of Mississippi Medical Center, priority 2006, dated 2012):
Entries after “also recorded” stand apart in the source; their conditions may differ. Read-outs that look alike come from different tables or passages of the source. Marks after values point to notes of the source that are not given here.

What was measured:
Assay type in all cases: cell-based, human
[1] = tested on: MES-SA uterine sarcoma cells; conditions: for IC50: cells counted after 72 h, ± SEM
Protocol: MES-SA cells were treated for 1 h at 37 or 42° C. with 5 μM Tat-ELP-GFLG-DOX (SEQ ID NO: 3); ELP-GFLG-DOX (SEQ ID NO: 3), which lacks the Tat cell penetrating peptide; or Tat-ELP-GFLG (SEQ ID NO: 3), which is not labeled with DOX. After the 1 h treatment, cells were rinsed and fresh media was replaced for 72 h. Cells remaining after 72 h were collected by trypsinization and counted using a Coulter counter. […] Similarly, the control polypeptide which lacks the Tat sequence was not cytotoxic, likely because it cannot efficiently enter the cells.
1.8 Cytotoxicity Assay. Cells were plated and treated for 1 h at 37° C. and 42° C. as described above with Tat-ELP1-GFLG-Dox (SEQ ID NO: 3), Tat-ELP2-GFLG-Dox (SEQ ID NO: 3), or control polypeptides lacking the Tat sequence or unlabeled with Dox. Cells were rinsed and harvested 72 h after treatment by trypsinization, collected by centrifugation, and resuspended in isotonic buffer. Cell number was determined using a Coulter counter and expressed as a percentage of untreated cells.
1.10. Data Fitting and Statistical Analysis. The concentration dependence of the Tt was fit with a logarithmic equation using Microsoft Excel. Dose-response curves were fit using exponential or sigmoid equations as applicable using Microcal Origin in order to determine the 50% inhibitory concentration (IC50). […] The significance of the thermal targeting index was assessed by comparing the normothermia group with the hyperthermia group using a paired Student's t-test in Microsoft Excel. p values of less than 0.05 were considered statistically significant. Polypeptide uptake and caspase activation were analyzed for statistical differences using one-way ANOVA analyses with post-hoc Scheffe's tests for pair-wise comparisons of treatment groups. The statistical significance level was p<0.05.
3.5. Cytotoxicity of ELP-delivered Dox. The growth-inhibitory activity of Tat-ELP-GFLG-Dox (SEQ ID NO: 3) was evaluated in the MES-SA uterine sarcoma cell line. MES-SA cells were treated for 1 h at 37° C. or 42° C. with various concentrations of Tat-ELP-GFLG-Dox (SEQ ID NO: 3); ELP-GFLG-Dox (SEQ ID NO: 3), which lacks the Tat cell penetrating peptide, the Tat-ELP-GFLG (SEQ ID NO: 3) polypeptide without Dox; or free Dox. After the 1 h treatment, the cells were rinsed and fresh media was replaced for 72 h. Cells remaining after 72 h were rinsed, collected by trypsinization, and counted using a Coulter counter. […] The toxicity of the unlabeled Tat-ELP-GFLG (SEQ ID NO: 3) protein was negligible when treated below the Tt.

MES-SA cells [2] = assay: Caspase activation, FLICA polycaspase assay with flow cytometry; conditions: 10 μM, 1 h
Protocol: MES-SA cells were treated for 1 h at 37 or 42° C. with Tat-ELP-GFLG-DOX (SEQ ID NO: 3), the control construct lacking the Tat sequence, with free DOX. Cells were harvested after the 1 h exposure, and caspase activity was detected using a fluorescent caspase inhibitor (Immunochemistry Technologies, Bloomington, Minn.) and flow cytometry.
Caspase activation was measured using a carboxyfluorescein FLICA polycaspase assay (Immunochemistry Technologies, Bloomington, Minn.). Cells were treated as described above with the indicated protein, collected by trypsinization, and stained for 2 h at 37° C. with the carboxyfluorescein FLICA reagent as described by the manufacturer. Cells were rinsed twice and analyzed for caspase activation by flow cytometry using a Cytomics FC 500 flow cytometer (n=5,000 cells). Forward versus side scatter gating was used to eliminate cell debris from the analysis, and a histogram of fluorescein fluorescence (channel FL1) was bimodal with peaks for caspase positive and caspase negative cells. The percentage of caspase positive cells was determined from the histograms and expressed as an average of 3 experiments.
MES-SA cells were treated as described above, cells were harvested after the 1 h exposure, and caspase activity was detected using a fluorescent caspase inhibitor and flow cytometric analysis. […] Cell numbers under each peak were quantified and averaged to determine the percentage of the cell population in which caspases were activated under each treatment condition. […] In fact, the percent of caspase positive cells was enhanced almost 4 fold when cells were treated with Tat-ELP1-GFLG-Dox (SEQ ID NO: 3) at 42° C. versus 37° C. (p<0.05).

MES-SA/Dx5 cells [3] = assay: Proliferation of doxorubicin-resistant cells, continuous 72 h exposure
Protocol: To test the ability of the ELP doxorubicin carrier to overcome this drug resistance, a uterine cancer cell line (MES-SA) and its doxorubicin resistant subline MES-SA/Dx5 were treated with either free doxorubicin or ELP-delivered doxorubicin.
A major problem with classical chemotherapy is the development of drug resistance. The most common mechanism of resistance is expression of a drug efflux pump (MDR1) by the cancer cells in response to drug treatment. This pump can remove drugs from the cells, and, though induced by one drug, it can act on a wide variety of others, resulting in a phenomenon called multi-drug resistance. […] The present inventors used this cell line to determine whether ELP delivered DOX can overcome MDR1-mediated resistance to doxorubicin. MES-SA/Dx5 cells were incubated with Tat-ELP-GFLG-DOX (SEQ ID NO: 3) continuously for 72 h.

MES-SA/Dx5 cells [4] = assay: Drug efflux by flow cytometry; conditions: loaded 5 h with 10 μM
Protocol: For further evidence that Tat-ELP-GFLG-DOX (SEQ ID NO: 3) can bypass the drug efflux pump, flow cytometry was used to analyze drug efflux from cells treated with free DOX or with Tat-ELP-GFLG-DOX (SEQ ID NO: 3). Cells were loaded for 5 h with either 10 μM DOX or Tat-ELP-GFLG-DOX (SEQ ID NO: 3), then the drug was removed and fresh media was replaced. Cells were collected and analyzed for DOX content using flow cytometry. […] The cells with low DOX fluorescence have pumped the drug out. As time passes after removal of the drug, the DOX positive peak gets lower in intensity and becomes a smaller percentage of the population. This illustrates the removal of DOX from theses cells with time after washing the drug out of the media. […] This means that all cells have the same amount of drug in them. This single peak is still evident at all time points after removal of the drug. This means that these cells are unable to pump the ELP delivered DOX out.

MES-SA cells [5] = assay: Confocal fluorescence microscopy of intracellular localization; conditions: 10 μM, after 1 h exposure; listed as free drug
Protocol: 1.7. Laser Scanning Confocal Fluorescence Microscopy. MES-SA cells were plated on 22 mm^2 cover slips at approximately 50% confluence and treated as described above with Tat-ELP-GFLG-Dox (SEQ ID NO: 3). Cells were rinsed with PBS at the indicated times, fixed with paraformaldehyde (PFA, 2% v/v) and visualized using a TCS SP2 laser scanning confocal microscope with a 100× oil immersion objective (Leica, Wetzlar, Germany). PMT voltages were lowered for imaging of cells treated at 42° C. during image acquisition to maximize image resolution and intensity.
3.4. Cellular Distribution. To confirm that Tat-ELP-GFLG-Dox (SEQ ID NO: 3) was internalized and not merely attached to the cell exterior, the cellular distribution of the ELP-delivered drug was examined by confocal fluorescence microscopy. MES-SA cells were treated for 1 h at 37° C. and 42° C. with 10 μM Tat-ELP1-GFLG-Dox (SEQ ID NO: 3). The cells were rinsed and analyzed immediately after treatment and 24 h later using the intrinsic Dox fluorescence. […] Untreated cells had no signal under the imaging settings used, ruling out any contribution to the images from autofluorescence (FIG. 7B, right panel).

MES-SA cells [6] = assay: DIC microscopy of apoptotic cell morphology; conditions: 10 μM, 1 h, temperature not distinguished
Protocol: 1.9. Apoptosis Assays. For differential interference contrast (DIC) microscopy, MES-SA cells were plated onto 22 mm^2 coverslips at 50% confluence. Cells were treated as described above with the indicated protein, rinsed with PBS, and mounted onto glass slides. The unfixed cells were imaged immediately using a Zeiss Axiovert 200 DIC microscope with a 40× oil immersion objective and a Coolsnap HQ camera.
2.6. Induction of Apoptosis. […] This effect was documented by treating MES-SA cells adhered to glass cover slips with each construct and imaging them by DIC microscopy. Cells were treated for 1 h as described above, then immediately mounted on slides and imaged without fixation. […] Untreated cells were spread onto the glass, and morphological features such as nuclei and endocytic vesicles were readily visible. This morphology was not altered by simply exposing the cells to hyperthermia. […] However, such effects were minor and limited to a fraction of the cells. […] All cells examined were rounded with no discernable nucleus and fragmented chromosomes.

## COc1cccc2c1C(=O)c1c(O)c3c(c(O)c1C2=O)C[C@@](O)(C(=O)CO)C[C@@H]3O[C@H]1C[C@H](N)[C@H](O)[C@H](C)O1 [Dox, doxorubicin]
[1]
  Cytotoxicity in words: more cytotoxic than the polymer-delivered drug
  IC50 relative to Tat-ELP-GFLG delivered Dox (times lower): about 150 times
[1]; 1 h treatment at 37° C., read-out: IC50 (37° C.)
  IC50: 130 ± 10 nM
[1]; 1 h treatment at 42° C., read-out: IC50 (42° C.)
  IC50: 58 ± 20 nM
[1]; IC50 at 37° C. divided by IC50 at 42° C.
  Thermal Targeting Index (IC50 37°/IC50 42°): 2.3 †
MES-SA cells [2]
  Enhancement of percent caspase positive cells at 42° C. versus 37° C.: not affected by hyperthermia
MES-SA cells [2]; temperature not distinguished
  Caspase activation / apoptosis induction: induced apoptosis
MES-SA/Dx5 cells [3]
  Resistance of MES-SA/Dx5 relative to MES-SA cells: 100 times
MES-SA/Dx5 cells [3]; continuous 72 h exposure
  Resistance of MES-SA/Dx5 relative to MES-SA cells: about 100 fold
MES-SA/Dx5 cells [4]
  Drug efflux: Dox fluorescence histogram after removal of the drug: two populations
MES-SA cells [5]
  Intracellular localization of Dox: exclusively in the cell nucleus; also recorded: localizes entirely in the nucleus
MES-SA cells [6]
  Cell morphology (hallmarks of apoptosis): noticeable rounding and membrane blebbing
